This note sets out measurements from patent US20220133729A1, “COMPOSITIONS AND METHODS FOR TREATING BASAL FOREBRAIN DISEASE” (EIP Pharma, Inc., priority 2019, published 2022).

For one assay, the system named is subjects with DLB. As to the kind of experiment: Phase 2 randomized, double-blind, placebo-controlled study of neflamapimod in subjects with DLB. Format: in vivo, human. The note with it: DLB patients. From the text: A Phase 2, multi-center, randomized, double-blind, placebo-controlled study is run of neflamapimod versus matching placebo (randomized 1:1) administered with food for 16 weeks in subjects with DLB. The primary objective is to evaluate the effect of neflamapimod on cognitive function as assessed in a study-specific COGSTATE Neuropsychological Test Battery (NTB). Secondary endpoints include the Clinical Dementia Rating Scale-Sum of Boxes (CDR-SB), Mini-Mental State Examination (MMSE), Neuropsychiatric Inventory (NPI-10), Timed Up and Go Test, and electroencephalogram (EEG) as a potential biomarker for DLB.
Neflamapimod 40 mg capsules are administered orally, BID or TID with food for 16 weeks; subjects will follow the BID regimen if weighing <80 kg or the TID regimen if weighing ≥80 kg. A placebo comparator is 40 mg matching placebo capsules administered orally, BID or TID with food for 16 weeks; subjects will follow the BID regimen if weighing <80 kg or the TID regimen if weighing ≥80 kg.
A primary outcome measure is a composite score of a study-specific COGSTATE Neurological Test Battery (NTB) including the COGSTATE Letter Fluency Test and Category Fluency Test at 16 weeks. A change from Baseline to Week 16 in the composite score of a study-specific Cog-state Neurological Test Battery (NTB), including assessments of attention, executive function, and visuospatial function in neflamapimod treated-subjects as compared to the placebo-treated subjects, are analyzed using the Mixed Model Repeated Measures (MMRM) analysis method. The following six tests are included in the composite: (1) COGSTATE Detection test (DET), (2) COGSTATE Identification test (IDN), (3) COGSTATE One Card Learning test (OCL), (4) COGSTATE One Back test (ONB), (5) Letter Fluency Test, (6) Category Fluency Test (CFT). Each score on the individual tests will be converted to a z-score, and then a total z-score will be calculated, in which each test is weighted equally. The change in total z-score in neflamapimod vs. placebo-recipients is analyzed. […]

Another assay concerns Ts2 mice. As to the kind of experiment: Ts2 mice treated 28 days with neflamapimod; medial septal nucleus ChAT+ neurons quantitated. Format: in vivo. The note with it: 3 mg/kg twice-daily. On the procedure:
Wild-type (WT) or Ts2 mice treated for 28 days, twice-daily, with vehicle (1% PluronicF108) or 3 mg/kg neflamapimod in vehicle (n=8-10 per group; 1:1 female/male). Treatment initiated at 4.7-6.4 months of age, when cholinergic neuronal loss is developing in Ts2 mice. Cortical Rab5+ endosomal number and size, and medial septal nucleus (MSN) cholineacetyltransferase (ChAT)+ neurons quantitated.

SMILES strings stand for the structures.

As to `O=c1ncn2nc(Sc3ccc(F)cc3F)ccc2c1-c1c(Cl)cccc1Cl` [neflamapimod], the “Mean change from baseline to Week 8, MMSE” value with subjects with DLB (40 mg TID dosing regimen, increase represents improvement, p=0.033 vs placebo) is “+1.07”. Also, the “Mean change from baseline to Week 4, Letter Fluency Test (LFT)” value in the assay with subjects with DLB (40 mg capsules BID or TID, increase represents improvement, p=0.027 vs placebo, preliminary assessment) is “+3.0”. Moreover, in the assay on subjects with DLB (40 mg capsules BID or TID, reduction represents improvement, p=0.031 vs placebo, preliminary assessment), the “Mean change from baseline to Week 4, COGSTATE Detection test (DET)” value is reported as −0.024. The “cholinergic neuron degeneration in the medial septal nucleus” value in the assay on Ts2 mice is “ameliorated”. Also, the “morphology (size) of ChAT+ neurons in the medial septal nucleus (MSN)” value with Ts2 mice (oral) is “normalizes”. Moreover, the “ChAT-positive neuron number in the medial septal nucleus” value with Ts2 mice (oral, stereological quantification) was “normalizes”.
